Reference: ChEMBL document CHEMBL1157659, “Design, synthesis, and biological evaluation of 3-[4-(2-hydroxyethyl)piperazin-1-yl]-7-(6-methoxypyridin-3-yl)-1-(2-propoxyethyl)pyrido[3,4-b]pyrazin-2(1H)-one, a potent, orally active, brain penetrant inhibitor of phosphodiesterase 5 (PDE5)” (J Med Chem, 2010)
Values belong to the molecule of their own block, whether it stands above or below them. Calls of active or inactive are those of the source. The rule behind the calls is not given here.

What was measured:
[1] = Plasma protein binding in rat; format: ADME, cell-free; settings: read-out: PPB (converted)
[2] = Aqueous solubility at pH 7.4; format: physicochemical
[3] = Fraction unbound in rat plasma; format: ADME, cell-free
[4] = species on record: Homo sapiens; experiment: Selectivity ratio of IC50 for human retina PDE6 to IC50 for human platelet PDE5
[5] = species on record: Homo sapiens; experiment: Fraction unbound in human plasma
[6] = species on record: Homo sapiens; experiment: Plasma protein binding in human; settings: read-out: PPB (converted)
[7] = Metabolic stability in rat microsomes assessed as compound remaining after 30 mins; format: ADME, Microsome; settings: read-out: Stability
[8] = molecular target: Voltage-gated inwardly rectifying potassium channel KCNH2 (Homo sapiens, UniProt Q12809); experiment: Inhibition of human ERG by patch-clamp method
[9] = species on record: Homo sapiens; experiment: Selectivity ratio of IC50 for human recombinant PDE11 to IC50 for human platelet PDE5
[10] = Clearance in Sprague-Dawley rat at 1 mg/kg, iv; format: ADME, organism-based; parameters: dose 1 mg/kg, route intravenous; settings: in vivo
[11] = Metabolic stability in human microsomes assessed as compound remaining after 30 mins; format: ADME, Microsome; settings: read-out: Stability
[12] = system: Plasma; experiment: Plasma protein binding in human; format: ADME, cell-free
[13] = system: Plasma; experiment: Fraction unbound in human plasma; format: ADME, cell-free
[14] = molecular target: cGMP-specific 3',5'-cyclic phosphodiesterase (Homo sapiens, UniProt O76074); experiment: Inhibition of human platelet PDE5 assessed as reduction in conversion of [3H]cGMP to [3H]GMP after 2 hr by scintillation proximity assay
[15] = Ratio of free drug level in iv dosed SHR rat plasma administered as three successive escalating doses to IC50 for human platelet PDE5; format: ADME, organism-based; settings: in vivo
[16] = molecular target: Dual specificity calcium/calmodulin-dependent 3',5'-cyclic nucleotide phosphodiesterase 1B (Homo sapiens, UniProt Q01064); experiment: Inhibition of PDE1B
[17] = system: Rattus norvegicus; experiment: Free plasma concentration in iv dosed anesthetized SHR rat administered as three successive escalating doses; format: ADME, organism-based; settings: in vivo
[18] = molecular target: cGMP-inhibited 3',5'-cyclic phosphodiesterase 3B (Homo sapiens, UniProt Q13370); experiment: Inhibition of PDE3B
[19] = Bioavailability in dog; format: ADME, organism-based, Canis lupus familiaris; settings: in vivo
[20] = Inhibition of PDE9
[21] = molecular target: 3',5'-cyclic-AMP phosphodiesterase 4A (Homo sapiens, UniProt P27815); experiment: Inhibition of PDE4A
[22] = molecular target: High affinity cAMP-specific and IBMX-insensitive 3',5'-cyclic phosphodiesterase 8A (Homo sapiens, UniProt O60658); experiment: Inhibition of PDE8A
[23] = Ratio of drug level in brain to blood in Sprague-Dawley rat at 10 mg/kg, sc administered as single dose measured after 2 hrs; format: ADME, organism-based; parameters: dose 10 mg/kg, route subcutaneous; settings: read-out: BBR
[24] = system: Rattus norvegicus; experiment: Antihypertensive activity in iv dosed anesthetized SHR rat assessed as reduction of systemic arterial blood pressure administered as three successive escalating doses measured during 30 to 50 mins portion of each 1 hr steady state infusion; format: functional, organism-based; settings: Artery
[25] = molecular target: Dual specificity calcium/calmodulin-dependent 3',5'-cyclic nucleotide phosphodiesterase 1A (Homo sapiens, UniProt P54750); experiment: Inhibition of PDE1A
[26] = molecular target: cGMP-inhibited 3',5'-cyclic phosphodiesterase 3A (Homo sapiens, UniProt Q14432); experiment: Inhibition of PDE3A
[27] = molecular target: 3',5'-cyclic-AMP phosphodiesterase 4C (Homo sapiens, UniProt Q08493); experiment: Inhibition of PDE4C
[28] = system: Rattus norvegicus; experiment: Toxicity in iv dosed SHR rat administered as three successive escalating doses; format: organism-based; settings: in vivo
[29] = molecular target: 3',5'-cyclic-AMP phosphodiesterase 4D (Homo sapiens, UniProt Q08499); experiment: Inhibition of PDE4D
[30] = system: Rattus norvegicus; experiment: Antihypertensive activity in anesthetized SHR rat assessed as reduction of systolic blood pressure at 2 mg/kg, po after 24 hrs relative to control; format: functional, Artery
[31] = Metabolic stability in cannulated Sprague-Dawley rat bile duct assessed as compound remaining after 6 hrs; format: ADME; settings: read-out: Stability
[32] = Tmax in healthy human; format: ADME, organism-based; settings: in vivo
[33] = Elimination half life in healthy human; format: ADME, organism-based; settings: in vivo, read-out: beta t1/2 (converted)
[34] = molecular target: 3',5'-cyclic-AMP phosphodiesterase 4B (Homo sapiens, UniProt Q07343); experiment: Inhibition of PDE4B
[35] = system: Rattus norvegicus; experiment: Antihypertensive activity in iv dosed anesthetized SHR rat assessed as reduction of systemic arterial blood pressure at free plasma concentration of 2.3 nM; format: functional, organism-based; settings: Artery
[36] = Clearance in dog; format: ADME, organism-based, Canis lupus familiaris; settings: in vivo
[37] = Inhibition of PDE2
[38] = Renal clearance in Sprague-Dawley rat as % compound recovered; format: ADME, organism-based, Kidney; settings: urine, read-out: Recovered in urine
[39] = molecular target: High affinity cAMP-specific and IBMX-insensitive 3',5'-cyclic phosphodiesterase 8B (Homo sapiens, UniProt O95263); experiment: Inhibition of PDE8B
[40] = molecular target: 3',5'-cyclic-AMP phosphodiesterase 7B (Homo sapiens, UniProt Q9NP56); experiment: Inhibition of PDE7B
[41] = Oral bioavailability in Sprague-Dawley rat at 1 mg/kg; format: ADME, organism-based; settings: in vivo
[42] = Inhibition of PDE7
[43] = molecular target: Dual specificity calcium/calmodulin-dependent 3',5'-cyclic nucleotide phosphodiesterase 1C (Homo sapiens, UniProt Q14123); experiment: Inhibition of PDE1C
[44] = Renal clearance in dog as % compound recovered; format: ADME, organism-based, Canis lupus familiaris, Kidney; settings: urine, read-out: Recovered in urine

Sequence of Voltage-gated inwardly rectifying potassium channel KCNH2 (Q12809 whole entry): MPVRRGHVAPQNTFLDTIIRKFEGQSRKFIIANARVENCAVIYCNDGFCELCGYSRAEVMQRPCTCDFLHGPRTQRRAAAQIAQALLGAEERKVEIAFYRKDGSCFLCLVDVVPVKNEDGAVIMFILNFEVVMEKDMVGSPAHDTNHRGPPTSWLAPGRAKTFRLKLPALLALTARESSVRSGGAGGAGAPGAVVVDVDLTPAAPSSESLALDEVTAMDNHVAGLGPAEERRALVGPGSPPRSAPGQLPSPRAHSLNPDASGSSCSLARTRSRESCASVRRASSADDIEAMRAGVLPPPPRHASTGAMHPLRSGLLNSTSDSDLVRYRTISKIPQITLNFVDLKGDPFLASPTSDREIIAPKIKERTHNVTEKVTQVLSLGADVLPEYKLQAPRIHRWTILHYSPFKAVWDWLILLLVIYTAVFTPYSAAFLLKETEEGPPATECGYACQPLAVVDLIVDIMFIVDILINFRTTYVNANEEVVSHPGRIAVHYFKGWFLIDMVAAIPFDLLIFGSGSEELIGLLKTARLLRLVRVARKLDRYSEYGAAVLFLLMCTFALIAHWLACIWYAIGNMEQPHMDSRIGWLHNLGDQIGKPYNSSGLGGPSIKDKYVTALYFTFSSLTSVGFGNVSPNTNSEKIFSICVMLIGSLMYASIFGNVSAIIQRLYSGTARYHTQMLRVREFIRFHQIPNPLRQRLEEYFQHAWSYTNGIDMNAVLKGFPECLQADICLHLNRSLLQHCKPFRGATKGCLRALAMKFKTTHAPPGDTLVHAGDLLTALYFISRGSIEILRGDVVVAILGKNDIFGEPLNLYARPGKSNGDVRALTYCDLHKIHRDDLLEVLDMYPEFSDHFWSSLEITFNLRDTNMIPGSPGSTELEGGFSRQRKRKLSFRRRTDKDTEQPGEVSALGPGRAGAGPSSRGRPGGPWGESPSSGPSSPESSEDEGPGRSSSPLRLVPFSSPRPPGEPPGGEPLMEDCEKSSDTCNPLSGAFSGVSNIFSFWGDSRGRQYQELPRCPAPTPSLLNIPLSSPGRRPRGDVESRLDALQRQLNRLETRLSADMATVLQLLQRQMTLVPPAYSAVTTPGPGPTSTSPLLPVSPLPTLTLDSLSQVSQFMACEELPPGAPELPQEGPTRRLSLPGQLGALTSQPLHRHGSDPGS
Sequence of High affinity cAMP-specific and IBMX-insensitive 3',5'-cyclic phosphodiesterase 8A (O60658 whole entry): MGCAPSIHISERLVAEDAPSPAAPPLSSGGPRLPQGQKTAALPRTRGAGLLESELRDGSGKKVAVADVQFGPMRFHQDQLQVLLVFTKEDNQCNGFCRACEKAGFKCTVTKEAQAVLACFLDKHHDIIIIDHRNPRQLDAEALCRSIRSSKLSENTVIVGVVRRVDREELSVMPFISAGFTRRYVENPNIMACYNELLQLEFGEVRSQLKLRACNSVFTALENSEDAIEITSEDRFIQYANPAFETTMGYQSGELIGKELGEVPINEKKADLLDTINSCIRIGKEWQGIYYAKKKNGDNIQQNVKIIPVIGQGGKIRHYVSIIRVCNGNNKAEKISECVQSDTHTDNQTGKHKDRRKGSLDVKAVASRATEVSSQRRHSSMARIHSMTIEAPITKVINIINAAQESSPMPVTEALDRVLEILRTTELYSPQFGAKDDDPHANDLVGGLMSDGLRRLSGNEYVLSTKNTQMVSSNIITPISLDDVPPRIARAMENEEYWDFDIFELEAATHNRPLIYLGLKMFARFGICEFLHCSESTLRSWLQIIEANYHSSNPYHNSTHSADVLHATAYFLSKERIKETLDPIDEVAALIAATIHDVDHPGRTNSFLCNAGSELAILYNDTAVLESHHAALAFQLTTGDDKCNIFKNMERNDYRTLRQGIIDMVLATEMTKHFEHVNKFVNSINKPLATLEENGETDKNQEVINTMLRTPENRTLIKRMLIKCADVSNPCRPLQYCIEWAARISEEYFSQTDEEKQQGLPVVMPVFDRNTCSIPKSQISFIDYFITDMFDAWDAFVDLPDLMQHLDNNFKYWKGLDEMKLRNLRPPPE
Sequence of Dual specificity calcium/calmodulin-dependent 3',5'-cyclic nucleotide phosphodiesterase 1A (P54750 whole entry): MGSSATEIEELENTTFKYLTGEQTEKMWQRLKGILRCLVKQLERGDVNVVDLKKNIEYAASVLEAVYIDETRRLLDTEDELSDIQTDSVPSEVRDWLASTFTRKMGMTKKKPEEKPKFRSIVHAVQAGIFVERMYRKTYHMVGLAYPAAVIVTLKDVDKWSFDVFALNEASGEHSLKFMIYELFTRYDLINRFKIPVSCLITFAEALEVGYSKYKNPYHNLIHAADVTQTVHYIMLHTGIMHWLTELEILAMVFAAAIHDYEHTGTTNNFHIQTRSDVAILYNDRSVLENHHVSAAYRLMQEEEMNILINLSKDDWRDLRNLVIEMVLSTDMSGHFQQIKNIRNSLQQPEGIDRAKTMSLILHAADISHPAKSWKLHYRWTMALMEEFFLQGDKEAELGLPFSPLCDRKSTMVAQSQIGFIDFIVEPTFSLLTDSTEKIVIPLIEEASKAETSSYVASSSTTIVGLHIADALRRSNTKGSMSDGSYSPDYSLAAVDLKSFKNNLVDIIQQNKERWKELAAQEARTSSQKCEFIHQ
Sequence of 3',5'-cyclic-AMP phosphodiesterase 4A (P27815 whole entry): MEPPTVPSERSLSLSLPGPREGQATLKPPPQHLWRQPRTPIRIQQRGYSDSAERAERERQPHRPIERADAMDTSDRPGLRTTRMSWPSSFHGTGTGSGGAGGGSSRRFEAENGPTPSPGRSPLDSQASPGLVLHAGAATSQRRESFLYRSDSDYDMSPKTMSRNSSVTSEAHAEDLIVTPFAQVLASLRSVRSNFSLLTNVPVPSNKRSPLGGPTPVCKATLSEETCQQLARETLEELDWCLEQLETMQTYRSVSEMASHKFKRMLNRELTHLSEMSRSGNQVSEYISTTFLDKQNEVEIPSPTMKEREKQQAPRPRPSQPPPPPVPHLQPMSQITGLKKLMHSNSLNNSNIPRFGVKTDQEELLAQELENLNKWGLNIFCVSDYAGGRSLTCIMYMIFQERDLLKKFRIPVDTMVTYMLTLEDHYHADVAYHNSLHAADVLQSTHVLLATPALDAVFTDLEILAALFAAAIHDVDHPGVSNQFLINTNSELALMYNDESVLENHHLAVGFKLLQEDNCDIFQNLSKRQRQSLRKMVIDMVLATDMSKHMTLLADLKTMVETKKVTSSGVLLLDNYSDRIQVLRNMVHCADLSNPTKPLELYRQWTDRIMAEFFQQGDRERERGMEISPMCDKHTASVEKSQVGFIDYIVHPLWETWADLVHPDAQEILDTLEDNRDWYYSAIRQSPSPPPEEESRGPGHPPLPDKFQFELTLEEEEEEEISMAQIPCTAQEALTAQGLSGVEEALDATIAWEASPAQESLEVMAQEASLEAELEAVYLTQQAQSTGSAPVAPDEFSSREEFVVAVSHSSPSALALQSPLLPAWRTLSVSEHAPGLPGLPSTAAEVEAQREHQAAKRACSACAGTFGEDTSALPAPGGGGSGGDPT
Sequence of High affinity cAMP-specific and IBMX-insensitive 3',5'-cyclic phosphodiesterase 8B (O95263 whole entry): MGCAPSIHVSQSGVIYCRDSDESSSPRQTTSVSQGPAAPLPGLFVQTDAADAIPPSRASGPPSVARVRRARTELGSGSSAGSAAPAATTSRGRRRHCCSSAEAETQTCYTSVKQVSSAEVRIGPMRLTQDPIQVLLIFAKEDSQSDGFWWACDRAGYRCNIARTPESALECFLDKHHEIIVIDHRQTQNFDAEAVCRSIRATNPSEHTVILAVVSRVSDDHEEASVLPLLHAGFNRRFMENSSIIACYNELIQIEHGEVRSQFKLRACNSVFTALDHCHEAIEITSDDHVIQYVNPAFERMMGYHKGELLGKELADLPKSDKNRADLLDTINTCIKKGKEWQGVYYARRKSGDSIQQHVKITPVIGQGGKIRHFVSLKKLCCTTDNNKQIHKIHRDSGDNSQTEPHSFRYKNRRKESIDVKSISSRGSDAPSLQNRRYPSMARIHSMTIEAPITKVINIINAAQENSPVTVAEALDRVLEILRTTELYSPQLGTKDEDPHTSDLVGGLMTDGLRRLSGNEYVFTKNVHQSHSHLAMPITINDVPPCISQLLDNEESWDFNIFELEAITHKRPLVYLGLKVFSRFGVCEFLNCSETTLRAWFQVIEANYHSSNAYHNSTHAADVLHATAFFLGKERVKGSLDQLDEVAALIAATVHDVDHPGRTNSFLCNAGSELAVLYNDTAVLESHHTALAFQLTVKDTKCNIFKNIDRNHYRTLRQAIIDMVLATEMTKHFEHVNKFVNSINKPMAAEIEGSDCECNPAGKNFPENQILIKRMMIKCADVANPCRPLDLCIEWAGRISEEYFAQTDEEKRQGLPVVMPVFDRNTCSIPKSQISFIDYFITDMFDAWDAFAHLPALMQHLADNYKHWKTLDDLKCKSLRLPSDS
Sequence of Dual specificity calcium/calmodulin-dependent 3',5'-cyclic nucleotide phosphodiesterase 1B (Q01064 whole entry): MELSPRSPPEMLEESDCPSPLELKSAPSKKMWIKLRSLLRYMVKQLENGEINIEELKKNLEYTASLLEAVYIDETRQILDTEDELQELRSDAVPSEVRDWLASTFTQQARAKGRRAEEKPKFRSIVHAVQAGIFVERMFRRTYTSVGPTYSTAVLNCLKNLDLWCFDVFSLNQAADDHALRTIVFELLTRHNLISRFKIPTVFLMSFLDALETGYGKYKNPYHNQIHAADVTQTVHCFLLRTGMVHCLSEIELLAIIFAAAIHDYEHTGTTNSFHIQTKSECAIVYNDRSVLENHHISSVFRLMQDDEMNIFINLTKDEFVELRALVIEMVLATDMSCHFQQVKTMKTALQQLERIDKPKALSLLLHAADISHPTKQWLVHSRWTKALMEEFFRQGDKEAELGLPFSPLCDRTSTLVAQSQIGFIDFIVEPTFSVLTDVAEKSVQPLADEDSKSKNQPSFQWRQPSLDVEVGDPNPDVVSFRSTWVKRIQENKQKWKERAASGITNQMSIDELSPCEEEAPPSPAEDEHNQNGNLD

fraction unbound [1]: 0.226
solubility [2]: > 100 µM
fraction unbound [3]: 0.18
Ratio IC50 [4]: 242
fraction unbound [5]: 0.18
fraction unbound [6]: 0.212
remaining at 0.5 h [7]: 100%
Ratio IC50 [9]: > 1780
clearance [10]: 34.9 L/h/kg
remaining at 0.5 h [11]: 95%
Structure (SMILES): CCCOCCn1c(=O)c(NCCNCCO)nc2cnc(-c3ccc(OC)nc3)cc21
IC50 [8]: 4.5 µM

fraction unbound [1]: 0.166
solubility [2]: > 100 µM
fraction unbound [3]: 0.18
Ratio IC50 [4]: 4840
PPB [12]: 69.4%
remaining at 0.5 h [7]: 98%
Ratio IC50 [9]: > 8000
Fu [13]: 18%
clearance [10]: 10.2 L/h/kg
remaining at 0.5 h [11]: 97%
Structure (SMILES): CCCOCCn1c(=O)c(NCCN)nc2cnc(-c3ccc(OC)nc3)cc21

IC50 [14]: 0.00031 µM
Ratio IC50 [4]: 49
Ratio IC50 [9]: 1400
Structure (SMILES): CCCOCCn1c(=O)c(N2CCN(C[C@H](C)O)CC2)nc2cnc(-c3ccc(OC)nc3)cc21

IC50 [14]: 0.00023 µM
Ratio IC50 [4]: 134
Ratio IC50 [9]: 2380
Structure (SMILES): CCCOCCn1c(=O)c(N2CCN(C[C@@H](C)O)CC2)nc2cnc(-c3ccc(OC)nc3)cc21
IC50 [8]: 0.23 µM

IC50 [14]: 0.00022 µM
Structure (SMILES): CCCOCCn1c(=O)c(N2CCN(CC)CC2)nc2cnc(-c3ccc(OC)nc3)cc21

IC50 [14]: 0.00018 µM
Ratio IC50 [4]: 62
Ratio IC50 [9]: 4260
Structure (SMILES): CCCOCCn1c(=O)c(N2CCN(CCCO)CC2)nc2cnc(-c3ccc(OC)nc3)cc21

fraction unbound [1]: 0.158
remaining at 0.5 h [7]: 86%
clearance [10]: 2.52 L/h/kg
remaining at 0.5 h [11]: 86%
Structure (SMILES): CCCOCCn1c(=O)c(N2CCNCC2)nc2cnc(-c3ccc(OC)nc3)cc21
IC50 [8]: 0.67 µM

Ratio IC50 [4]: 94
Ratio IC50 [9]: > 1860
Structure (SMILES): CCCOCCn1c(=O)c(N2CCCN(CCCO)CC2)nc2cnc(-c3ccc(OC)nc3)cc21

Ratio IC50 [4]: 70
Ratio IC50 [9]: > 2780
Structure (SMILES): CCCOCCn1c(=O)c(N2CCCN(CCO)CC2)nc2cnc(-c3ccc(OC)nc3)cc21

Ratio IC50 [4]: 64
Ratio IC50 [9]: 1370
Structure (SMILES): CCCOCCn1c(=O)c(N2CCN(CC(C)(C)O)CC2)nc2cnc(-c3ccc(OC)nc3)cc21

Ratio IC50 [4]: 93
Ratio IC50 [9]: 456
Structure (SMILES): CCCOCCn1c(=O)c(N2C[C@H]3C[C@@H]2CN3)nc2cnc(-c3ccc(OC)nc3)cc21

Ratio IC50 [4]: 134
Ratio IC50 [9]: 1740
Structure (SMILES): CCCOCCn1c(=O)c(N2CCN([C@@H](C)[C@@H](C)O)CC2)nc2cnc(-c3ccc(OC)nc3)cc21 (racemic)
IC50 [8]: 0.054 µM

IC50 [14]: 0.0003 µM
Ratio IC50 [4]: 68
Ratio IC50 [9]: 2090
Structure (SMILES): CCCOCCn1c(=O)c(N2CCN([C@H](C)[C@@H](C)O)CC2)nc2cnc(-c3ccc(OC)nc3)cc21 (racemic)

fraction unbound [1]: 0.171
Ratio [15]: 11
IC50 [16]: > 2 µM
Cp(f) [17]: 2.3 nM
IC50 [18]: > 2 µM
bioavailability [19]: 92%
IC50 [20]: > 2 µM
IC50 [21]: > 2 µM
IC50 [22]: > 2 µM
Kp at 2 h [23]: 4
IC50 [14]: 0.0002 µM
fraction unbound [3]: 0.18
IC50 [25]: > 2 µM
Ratio IC50 [4]: 158
IC50 [26]: > 2 µM
IC50 [27]: > 2 µM
IC50 [29]: > 2 µM
remaining at 6 h [31]: 2%
PPB [12]: 67.8%
Tmax [32]: 1 h
half-life [33]: 17 h
remaining at 0.5 h [7]: 89%
Ratio IC50 [9]: 2460
IC50 [34]: > 2 µM
Fu [13]: 18%
clearance [36]: 0.348 L/h/kg
clearance [10]: 2.22 L/h/kg
IC50 [37]: > 2 µM
remaining at 0.5 h [11]: 85%
dose excreted [38]: < 2%
IC50 [39]: > 2 µM
IC50 [40]: > 2 µM
bioavailability [41]: 69%
IC50 [42]: > 2 µM
IC50 [43]: > 2 µM
dose excreted [44]: < 2%
Structure (SMILES): CCCOCCn1c(=O)c(N2CCN(CCO)CC2)nc2cnc(-c3ccc(OC)nc3)cc21 [PF-03049423]
Activity [24]: Active
Activity [28]: Non-toxic
Activity [30]: 25 mmHg
IC50 [8]: 1.79 µM
Activity [35]: Active
